The subject of data set [1] is Bmi-1 protein. Briefly: Sandwich ELISA Assay (Bmi-1 protein level in HT-1080 cells after compound treatment). The class given is cell-based. The method, boiled down: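 HT-1080 cells exposed to compounds for 40–48 h at 37 °C (0.5% DMSO final), then lysed. Bmi-1 in lysates measured by sandwich ELISA (mouse monoclonal capture, rabbit anti-Bmi-1 detection, HRP anti-rabbit, TMB), read at OD450 with OD570 reference against a recombinant Bmi-1 standard curve (0–8000 pg/mL).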
In general terms: An ELISA detects its analyte on a solid surface through an enzyme-linked reagent.

[2] abbreviates: Table 1, Bmi-1 sandwich ELISA, read-out: ELISA EC50 value for Bmi-1 protein.
[3] abbreviates: read-out: ELISA EC50 value for Bmi-1 protein, Table 1, Bmi-1 sandwich ELISA.

Read-outs that look alike come from different tables or passages of the source.

As a reminder, the EC50 is the midpoint of the concentration-response curve. For orientation: melting point means the temperature of the solid-liquid transition.

`CCn1nc(C)c(-c2cncc(Nc3ccc(OC(F)(F)F)cc3)n2)c1C` [compound 84, 6-(1-ethyl-3,5-dimethyl-1H-pyrazol-4-yl)-N-[4-(trifluoromethoxy)phenyl]pyrazin-2-amine] displayed a melting point of 142 to 143 °C. Moreover, the EC50 in data set [1] (setting [2]) lay in the range of 1 to 10 nM.

`FC(F)(F)Oc1ccc(Nc2cncc(-c3cccc4nc(C5CC5)cn34)n2)cc1` [compound 87, 6-(2-cyclopropylimidazo[1,2-a]pyridin-5-yl)-N-[4-(trifluoromethoxy)phenyl]pyrazin-2-amine] had a melting point of 225 to 227 °C. Besides, in data set [1] (setting [2]), the EC50 lay in the range of 100 to 3000 nM.

The compound `FC(F)(F)c1ccc(Nc2cncc(-c3cccc4nc(C5CC5)cn34)n2)cc1` [compound 89, 6-(2-cyclopropylimidazo[1,2-a]pyridin-5-yl)-N-[4-(trifluoromethyl)phenyl]pyrazin-2-amine] yielded a melting point of 266 to 268 °C. In addition, the EC50 in data set [1] (setting [2]) fell in the range of 100 to 3000 nM.

For the compound `FC1(F)Oc2ccc(Nc3cncc(-c4c(C(F)(F)F)nc5ccccn45)n3)cc2O1` [compound 91, N-(2,2-difluoro-1,3-benzodioxol-5-yl)-6-[2-(trifluoromethyl)imidazo[1,2-a]pyridin-3-yl]pyrazin-2-amine], the melting point lay within 232 to 234 °C. Further, the EC50 in data set [1] (setting [2]) was 100 to 3000 nM.

The compound `Cc1csc(Nc2cncc(-c3c(C(F)(F)F)nc4ccccn34)n2)n1` [compound 96, N-(4-methyl-1,3-thiazol-2-yl)-6-[2-(trifluoromethyl)imidazo[1,2-a]pyridin-3-yl]pyrazin-2-amine] returned a melting point of 317 to 319 °C. Further, in data set [1] (setting [2]), the EC50 was in the range of 100 to 3000 nM.

In the case of `COc1ccc(Nc2cccc(-c3c(C(F)(F)F)nc4ccc(OC)cn34)n2)cc1` [compound 104, N-(4-methoxyphenyl)-6-[6-methoxy-2-(trifluoromethyl)imidazo[1,2-a]pyridin-3-yl]pyridin-2-amine], the melting point lay in the range of 139 to 140 °C. For the same compound, the EC50 in data set [1] (setting [2]) lay in the range of 10 to 100 nM.

As for `FC(F)(F)c1ccc(Nc2cncc(-c3cccc4nc(C5CCC5)cn34)n2)cc1` [compound 114, 6-(2-cyclobutylimidazo[1,2-a]pyridin-5-yl)-N-[4-(trifluoromethyl)phenyl]pyrazin-2-amine], the melting point was in the range of 288 to 290 °C. The EC50 in data set [1] (setting [2]) is 100 to 3000 nM.

`FC(F)Oc1ccc(Nc2cncc(-c3cccc4nc(C5CCC5)cn34)n2)cc1` [compound 115, 6-(2-cyclobutylimidazo[1,2-a]pyridin-5-yl)-N-[4-(difluoromethoxy)phenyl]pyrazin-2-amine] registered a melting point of 252 to 253 °C. The EC50 in data set [1] (setting [2]) was 10 to 100 nM.

For `COc1ccc(Nc2cncc(-c3cccc4nc(C5CCC5)cn34)n2)cc1` [compound 116, 6-(2-cyclobutylimidazo[1,2-a]pyridin-5-yl)-N-(4-methoxyphenyl)pyrazin-2-amine], the melting point lay within 223 to 225 °C. Moreover, the EC50 in data set [1] (setting [2]) is 10 to 100 nM.

`FC1(F)Oc2ccc(Nc3cncc(-c4cccc5nc(C6CCC6)cn45)n3)cc2O1` [compound 117, 6-(2-cyclobutylimidazo[1,2-a]pyridin-5-yl)-N-(2,2-difluoro-1,3-benzodioxol-5-yl)pyrazin-2-amine]: the melting point lay in the range of 302 to 305 °C. In addition, the EC50 in data set [1] (setting [2]) lay in the range of 100 to 3000 nM.

Regarding `Cc1noc(C)c1-c1cncc(Nc2ccc(C(F)(F)F)cc2)n1` [compound 127, 6-(3,5-dimethyl-1,2-oxazol-4-yl)-N-[4-(trifluoromethyl)phenyl]pyrazin-2-amine], the melting point fell in the range of 208 to 210 °C. Also, the EC50 in data set [1] (setting [3]) lay in the range of 10 to 100 nM.

For the compound `Cc1nn(C)c(C)c1-c1cncc(Nc2ccc(C(F)(F)F)cc2)n1` [compound 128, N-[4-(trifluoromethyl)phenyl]-6-(1,3,5-trimethyl-1H-pyrazol-4-yl)pyrazin-2-amine], the melting point is 201 to 202 °C. Also, the EC50 in data set [1] (setting [2]) lay within 1 to 10 nM.

Compound `FC(F)(F)c1ccc(Nc2cncc(-c3c(C4CC4)nc4ccccn34)n2)cc1` [compound 129, 6-(2-cyclopropylimidazo[1,2-a]pyridin-3-yl)-N-[4-(trifluoromethyl)phenyl]pyrazin-2-amine] displayed a melting point of 215 to 217 °C. For the same compound, the EC50 in data set [1] (setting [3]) was in the range of 1 to 10 nM.

As to `FC(F)Oc1ccc(Nc2cncc(-c3c(C4CC4)nc4ccccn34)n2)cc1` [compound 130, 6-(2-cyclopropylimidazo[1,2-a]pyridin-3-yl)-N-[4-(difluoromethoxy)phenyl]pyrazin-2-amine], the melting point was in the range of 208 to 210 °C. The EC50 in data set [1] (setting [2]) was in the range of 1 to 10 nM.

As to `FC(F)(F)c1ccc(Nc2cncc(-c3c(C4CCC4)nc4ccccn34)n2)cc1` [compound 131, 6-(2-cyclobutylimidazo[1,2-a]pyridin-3-yl)-N-[4-(trifluoromethyl)phenyl]pyrazin-2-amine], the melting point was 218 to 219 °C. Also, in data set [1] (setting [2]), the EC50 was 1 to 10 nM.

On to `Cc1nn(C)c(C)c1-c1cccc(Nc2ccc(C(F)(F)F)cc2)n1` [compound 145, N-[4-(trifluoromethyl)phenyl]-6-(1,3,5-trimethyl-1H-pyrazol-4-yl)pyridin-2-amine], for which the melting point was 48 to 50 °C. Moreover, in data set [1] (setting [2]), the EC50 lay within 10 to 100 nM.

In turn, `Cc1nn(C)c(C)c1-c1cccc(Nc2ccc(OC(F)F)cc2)n1` [compound 146, N-[4-(difluoromethoxy)phenyl]-6-(1,3,5-trimethyl-1H-pyrazol-4-yl)pyridin-2-amine] gave a melting point of 71 to 72 °C. Moreover, the EC50 in data set [1] (setting [2]) lay in the range of 10 to 100 nM.

The compound `Cc1cnc(Nc2cccc(-c3c(C(F)(F)F)nc4ccccn34)n2)s1` [compound 147, N-(5-methyl-1,3-thiazol-2-yl)-6-[2-(trifluoromethyl)imidazo[1,2-a]pyridin-3-yl]pyridin-2-amine] registered a melting point of 270 to 271 °C. Besides, in data set [1] (setting [2]), the 50% effective concentration (EC50) is 100 to 3000 nM.

Compound `Cc1csc(Nc2cccc(-c3c(C(F)(F)F)nc4ccccn34)n2)n1` [compound 148, N-(4-methyl-1,3-thiazol-2-yl)-6-[2-(trifluoromethyl)imidazo[1,2-a]pyridin-3-yl]pyridin-2-amine] yielded a melting point of 259 to 261 °C. Also, the EC50 in data set [1] (setting [2]) lay within 10 to 100 nM.

`Cc1nc(Nc2cccc(-c3c(C(F)(F)F)nc4ccccn34)n2)sc1C` [compound 149, N-(4,5-dimethyl-1,3-thiazol-2-yl)-6-[2-(trifluoromethyl)imidazo[1,2-a]pyridin-3-yl]pyridin-2-amine]: the melting point was 227 to 228 °C. The EC50 in data set [1] (setting [2]) fell in the range of 100 to 3000 nM.

With `FC(F)(F)c1nc2ccccn2c1-c1cncc(Nc2ccc(C3CC3)cc2)n1` [compound 165, N-(4-cyclopropylphenyl)-6-[2-(trifluoromethyl)imidazo[1,2-a]pyridin-3-yl]pyrazin-2-amine], the melting point was in the range of 317 to 320 °C. Further, the half-maximal effective concentration (EC50) in data set [1] (setting [2]) fell in the range of 1 to 10 nM.

Compound `CCn1nc(C)c(-c2cncc(Nc3ccc(C(F)(F)F)cc3)n2)c1C` [compound 175, 6-(1-ethyl-3,5-dimethyl-1H-pyrazol-4-yl)-N-[4-(trifluoromethyl)phenyl]pyrazin-2-amine] had a melting point of 78 to 79 °C. The EC50 in data set [1] (setting [3]) fell in the range of 1 to 10 nM.

In the case of `CCS(=O)(=O)n1nc(C)c(-c2cncc(Nc3ccc(C(F)(F)F)cc3)n2)c1C` [compound 176, 6-[1-(ethylsulfonyl)-3,5-dimethyl-1H-pyrazol-4-yl]-N-[4-(trifluoromethyl)phenyl]pyrazin-2-amine], the melting point fell in the range of 70 to 71 °C. For the same compound, in data set [1] (setting [2]), the EC50 was in the range of 10 to 100 nM.

`COC(=O)c1ccc2nc(C(F)(F)F)c(-c3cncc(Nc4ccc(OC(F)F)cc4)n3)n2c1` [compound 178, methyl 3-(6-{[4-(difluoromethoxy)phenyl]amino}pyrazin-2-yl)-2-(trifluoromethyl)imidazo[1,2-a]pyridine-6-carboxylate] came in with a melting point of 227 to 229 °C. Also, in data set [1] (setting [2]), the EC50 lay within 100 to 3000 nM.

On to `CCc1nc(C)cn1-c1cncc(Nc2ccc(C(F)(F)F)cc2)n1` [compound 179, 6-(2-ethyl-4-methyl-1H-imidazol-1-yl)-N-[4-(trifluoromethyl)phenyl]pyrazin-2-amine], for which the melting point fell in the range of 207 to 208 °C. The EC50 in data set [1] (setting [3]) lay in the range of 100 to 3000 nM.

As for `CCc1nc(C)cn1-c1cncc(Nc2ccc(OC(F)F)cc2)n1` [compound 180, N-[4-(difluoromethoxy)phenyl]-6-(2-ethyl-4-methyl-1H-imidazol-1-yl)pyrazin-2-amine], the melting point was in the range of 168 to 169 °C. In data set [1] (setting [2]), the EC50 fell in the range of 100 to 3000 nM.

In turn, `Cc1nc2ccccn2c1-c1cncc(Nc2ccc(C(F)(F)F)cc2)n1` [compound 202, 6-(2-methylimidazo[1,2-a]pyridin-3-yl)-N-[4-(trifluoromethyl)phenyl]pyrazin-2-amine] yielded a melting point of 180 to 182 °C. In data set [1] (setting [2]), the EC50 is below 1 nM.

On to `Cc1nc2cc(F)ccc2n1-c1cncc(Nc2ccc(C(F)(F)F)cc2)n1` [compound 204, 6-(5-fluoro-2-methyl-1H-benzimidazol-1-yl)-N-[4-(trifluoromethyl)phenyl]pyrazin-2-amine], for which the melting point fell in the range of 272 to 275 °C. Also, in data set [1] (setting [2]), the EC50 lay in the range of 10 to 100 nM.

Consider `Cc1nc2cc(F)ccc2n1-c1cncc(Nc2ccc(OC(F)F)cc2)n1` [compound 205, N-[4-(difluoromethoxy)phenyl]-6-(5-fluoro-2-methyl-1H-benzimidazol-1-yl)pyrazin-2-amine], for which the melting point fell in the range of 239 to 241 °C. For the same compound, in data set [1] (setting [2]), the EC50 was in the range of 10 to 100 nM.

Take `Cc1nc2cc(F)ccc2n1-c1cncc(Nc2ccc(OC(F)(F)F)cc2)n1` [compound 206, 6-(5-fluoro-2-methyl-1H-benzimidazol-1-yl)-N-[4-(trifluoromethoxy)phenyl]pyrazin-2-amine]: the melting point lay in the range of 248 to 250 °C. In data set [1] (setting [2]), the EC50 was in the range of 100 to 3000 nM.

The record behind these values is patent US10584115B2, “Substituted pyridine and pyrazine BMI-1 inhibitors” (PTC Therapeutics, Inc., priority 2013, dated 2020).
